From patent US11505548B2, “Heterocyclic compounds and their use for treatment of helminthic infections and diseases” (Celgene Corporation, priority 2019, dated 2022)
Like-named read-outs stand apart in the source and are kept apart here.

Tested on: Onchocerca gutturosa Adult Male Worms
Assay: Onchocerciasis in vitro screening model, worm motility score
Format: cell-based
Details: read-out: O. gutturosa activity level (IC50 or MED)
[1] = Onchocerca gutturosa, Table 1 O. gutturosa, levels A/B/C, motility or MTT readout not specified
[2] = in vitro, Onchocerca gutturosa adult male worms, class A/B/C

Row | SMILES | IC50 [1] | IC50 [2]
1 | COc1cccnc1-c1nsc(Nc2cc(C(F)(F)F)c(C(C)C)cn2)n1 [Compound 210, N-(5-isopropyl-4-(trifluoromethyl)pyridin-2-yl)-3-(3-methoxy-pyridin-2-yl)-1,2,4-thiadiazol-5-amine] |  | 200 to 500 nM
2 | Cc1ccnc(-c2nsc(Nc3ncccc3F)n2)c1 [Compound 12, N-(3-fluoropyridin-2-yl)-3-(4-methylpyridin-2-yl)-1,2,4-thiadiazol-5-amine] | < 200 nM | 
3 | COc1cccnc1Nc1nc(-c2cc(C(F)(F)F)c(OC3CC3)cn2)ns1 [Compound 134, 3-(5-cyclo-propoxy-4-(trifluoromethyl)pyridin-2-yl)-N-(3-methoxy-pyridin-2-yl)-1,2,4-thiadiazol-5-amine] | 500 to 5000 nM | 
4 | CC(C)Oc1cnc(-c2nsc(Nc3ncccc3C(=O)N(C)C3CC3)n2)cc1C(F)(F)F [Compound 263, N-cyclo-propyl-2-(3-(5-isopropoxy-4-(trifluoro-methyl)pyridin-2-yl)-1,2,4-thiadiazol-5-ylamino)-N-methyl-nicotinamide] |  | 500 to 5000 nM
5 | COc1ccc(Nc2nc(-c3cc(OC4CCCCC4)ccn3)ns2)nc1 [Compound 183, 3-(4-(cyclo-hexyloxy)pyridin-2-yl)-N-(5-methoxypyridin-2-yl)-1,2,4-thiadiazol-5-amine] | 200 to 500 nM | 
6 | CC(C)c1ccnc(-c2nsc(Nc3cc(C(F)(F)F)ccn3)n2)c1 [Compound 86, 3-(4-isopropyl-pyridin-2-yl)-N-(4-(trifluoromethyl)pyridin-2-yl)-1,2,4-thiadiazol-5-amine] | < 200 nM | 
7 | CC(C)Oc1ccc(-c2nsc(Nc3ncccc3S(=O)(=O)N3CCC3)n2)nc1 [Compound 298, N-(3-(azetidin-1-ylsulfonyl)pyridin-2-yl)-3-(5-isopropoxypyridin-2-yl)-1,2,4-thiadiazol-5-amine] |  | 200 to 500 nM
8 | CCOc1ccc(Nc2nc(-c3cc(OC)ccn3)no2)nc1 [Compound 35, N-(5-ethoxy-pyridin-2-yl)-3-(4-methoxy-pyridin-2-yl)-1,2,4-oxadiazol-5-amine] | < 200 nM | 
9 | COc1cccnc1Nc1nc(-c2cc(C)ccn2)ns1 [Compound 24, N-(3-methoxy-pyridin-2-yl)-3-(4-methyl-pyridin-2-yl)-1,2,4-thiadiazol-5-amine] | < 200 nM | 
10 | CN(C)c1cccnc1Nc1nc(-c2ccc(OC(F)F)cn2)ns1 [Compound 120, N2-(3-(5-(difluoromethoxy)pyridin-2-yl)-1,2,4-thiadiazol-5-yl)-N3,N3-dimethyl-pyridine-2,3-diamine] | 500 to 5000 nM | 
11 | CC(C)Oc1cnc(-c2nsc(Nc3ncccc3C(=O)N3CCCC3)n2)cc1C(F)(F)F [Compound 251, (2-(3-(5-isopropoxy-4-(trifluoromethyl)pyridin-2-yl)-1,2,4-thiadiazol-5-ylamino)pyridin-3-yl) (pyrrolidin-1-yl)methanone] |  | 500 to 5000 nM
12 | Cc1ccnc(Nc2nnc(-c3ncccc3C)[nH]2)c1 [Compound 242, 4-methyl-N-(5-(3-methyl-pyridin-2-yl)-4H-1,2,4-triazol-3-yl)pyridin-2-amine] |  | 500 to 5000 nM

Other lines, results leading:

Row | IC50 [1] | IC50 [2] | SMILES
13 | < 200 nM |  | CN(C)c1cccnc1Nc1nc(-c2cc(C(F)(F)F)c(OC3CC3)cn2)ns1 [Compound 111, N2-(3-(5-cyclo-propoxy-4-(trifluoromethyl)pyridin-2-yl)-1,2,4-thiadiazol-5-yl)-N3,N3-dimethyl-pyridine-2,3-diamine]
14 |  | < 200 nM | CC(=O)N(C)c1cc(C(F)(F)F)cnc1Nc1nc(-c2cc(C(C)C)ccn2)ns1 [Compound 301, N-(2-(3-(4-isopropylpyridin-2-yl)-1,2,4-thiadiazol-5-ylamino)-5-(trifluoromethyl)pyridin-3-yl)-N-methylacetamide]
15 | < 200 nM |  | CCN(c1nc(-c2ccc(OC(C)C)cn2)ns1)c1ncccc1C [Compound 131, N-ethyl-3-(5-isopropoxy-pyridin-2-yl)-N-(3-methyl-pyridin-2-yl)-1,2,4-thiadiazol-5-amine]
16 | 500 to 5000 nM |  | Cc1cccnc1-c1nsc(Nc2ccc(C3CCN(C)CC3)cn2)n1 [Compound 49, N-(5-(1-methyl-piperidin-4-yl)pyridin-2-yl)-3-(3-methylpyridin-2-yl)-1,2,4-thiadiazol-5-amine]
17 | < 200 nM |  | COc1ccc(-c2nsc(Nc3ccc(OC4CCOCC4)cn3)n2)nc1 [Compound 43, 3-(5-methoxy-pyridin-2-yl)-N-(5-(tetrahydro-2H-pyran-4-yloxy)pyridin-2-yl)-1,2,4-thiadiazol-5-amine]
18 |  | 500 to 5000 nM | Cc1cccnc1Nc1nc(-c2ccc(C(=O)N(C)C)cn2)no1 [Compound 277, N,N-dimethyl-6-(5-(3-methylpyridin-2-ylamino)-1,2,4-oxadiazol-3-yl)nicotinamide]
19 |  | 500 to 5000 nM | CC(=O)N(C)c1cc(C(F)(F)F)cnc1Nc1nc(-c2cc3c(cn2)NC(=O)C3(C)C)ns1 [Compound 280, N-(2-(3-(3,3-dimethyl-2-oxo-2,3-dihydro-1H-pyrrolo[2,3-c]pyridin-5-yl)-1,2,4-thiadiazol-5-ylamino)-5-(trifluoromethyl)pyridin-3-yl)-N-methylacetamide]
20 |  | 500 to 5000 nM | CC(=O)N(C)c1cccnc1Nc1nc(-c2ccc(OC(C)C)cn2)no1 [Compound 222, N-(2-(3-(5-isopropoxy-pyridin-2-yl)-1,2,4-oxadiazol-5-ylamino)pyridin-3-yl)-N-methyl-acetamide]
21 | < 200 nM |  | CN(C)c1cccnc1Nc1nc(-c2cc3c(cn2)N(C)CC3)ns1 [Compound 162, N3,N3-dimethyl-N2-(3-(1-methyl-2,3-dihydro-1H-pyrrolo[2,3-c]pyridin-5-yl)-1,2,4-thiadiazol-5-yl)pyridine-2,3-diamine]
22 |  | 500 to 5000 nM | c1ccc(-c2ccnc(Nc3nnc(-c4ccccn4)o3)c2)cc1 [Compound 235, N-(4-phenyl-pyridin-2-yl)-5-(pyridin-2-yl)-1,3,4-oxadiazol-2-amine]
23 | < 200 nM |  | Cc1cccnc1Nc1nc(-c2cc(OC3CC3)c(C(F)(F)F)cn2)ns1 [Compound 151, 3-(4-cyclo-propoxy-5-(trifluoromethyl)pyridin-2-yl)-N-(3-methylpyridin-2-yl)-1,2,4-thiadiazol-5-amine]
24 | < 200 nM |  | c1ccc(Nc2nc(-c3ccccn3)ns2)nc1 [Compound 33, N,3-di(pyridin-2-yl)-1,2,4-thiadiazol-5-amine]
25 | < 200 nM |  | Fc1cccnc1-c1noc(Nc2cc(C(F)(F)F)ccn2)n1 [Compound 27, 3-(3-fluoropyridin-2-yl)-N-(4-(trifluoro-methyl)pyridin-2-yl)-1,2,4-oxadiazol-5-amine]
26 |  | 500 to 5000 nM | CC(C)Oc1ccc(-c2nsc(Nc3ncc(C(F)(F)F)cc3S(=O)(=O)N(C)C)n2)nc1 [Compound 286, 2-(3-(5-isopropoxy-pyridin-2-yl)-1,2,4-thiadiazol-5-ylamino)-N,N-dimethyl-5-(trifluoromethyl) pyridine-3-sulfonamide]
27 |  | < 200 nM | COc1ccc(Nc2nnc(-c3cc(OC4CCCCC4)ccn3)o2)nc1 [Compound 214, 5-(4-(cyclohexy-loxy)pyridin-2-yl)-N-(5-methoxypyridin-2-yl)-1,3,4-oxadiazol-2-amine]
28 | 200 to 500 nM |  | Cc1cccnc1Nc1nc(-c2ccc(OC3CCN(C)CC3)cn2)ns1 [Compound 18, 3-(5-(1-methyl-piperidin-4-yloxy)pyridin-2-yl)-N-(3-methylpyridin-2-yl)-1,2,4-thiadiazol-5-amine]
